According to publication PMC10985144, “Design, synthesis, and evaluation of the novel ozagrel–paeonol codrug with antiplatelet aggregation activities as a potent anti-stroke therapeutic agent” (Frontiers in Pharmacology, 2024):
Several values for one entry are separate records, joined by “and”; a condition that tells them apart may be missing. Equal values may be shown once. Read-outs that look alike come from different tables or passages of the source. Values belong to the compound of their own block, whether it stands above or below them.

Columns and labels:
[1] = system: AA-induced platelet aggregation; experiment: AA-induced platelet aggregation (antiplatelet aggregation activity); type: cell-based; settings: platelet aggregation induced by AA (1 μM); mean ± SD, n = 5
Method: The antiplatelet aggregation activity of the target compounds was evaluated against ADP- and AA-induced platelet aggregation. In other words, different concentrations of the target compound solution and POC ([Zhang J. et al., 2021]) (10 μL) were added to the plasma at 37°C for 5 min. […] Variations in absorbance were monitored for 5 min in order to measure platelet aggregation ([Daron et al., 2022]). The platelet aggregation inhibition rate (AIR) was calculated according to the following formula: AIR = (rate of aggregation (control)−rate of aggregation (compounds))/rate of aggregation (control) × 100%

[2] = system: ADP-induced platelet aggregation; experiment: ADP-induced platelet aggregation (antiplatelet aggregation activity); type: cell-based; settings: platelet aggregation induced by ADP (10 μM); mean ± SD, n = 5
Method: The antiplatelet aggregation activity of the target compounds was evaluated against ADP- and AA-induced platelet aggregation. In other words, different concentrations of the target compound solution and POC ([Zhang J. et al., 2021]) (10 μL) were added to the plasma at 37°C for 5 min. Then, platelets were stimulated with ADP (10 μM, 30 μL) or AA (1 mM, 30 μL). Variations in absorbance were monitored for 5 min in order to measure platelet aggregation ([Daron et al., 2022]). The platelet aggregation inhibition rate (AIR) was calculated according to the following formula: AIR = (rate of aggregation (control)−rate of aggregation (compounds))/rate of aggregation (control) × 100%

[3] = system: PC12 cells; experiment: Viability of PC12 cells, CCK-8 assay; type: cell-based, rat; settings: 24 h
Method: (§1) For the cell culture conditions, rat pheochromocytoma PC12 cells (ATCC, Manassas, VA, United States) were cultured in RPMI 1640 culture medium with 1% penicillin and streptomycin and 10% fetal bovine serum (FBS) (Gibco, Waltham, MA, United States) at 37°C with 5% CO2.
Cell viability was assessed using a CCK-8 assay. The PC12 cells were seeded in a 96-well plate at a density of 1 × 10^5 cells per well. After incubation for 24 h, the cells were treated with various concentrations of the compound. After 24 h of re-incubation, the cell viability was evaluated using a 10% CCK-8 solution. The absorbance value was determined at 450 nm.

[4] = Pharmacokinetic study after single i.g. or i.v. administration to rats; type: in vivo; settings: for AUC(0-t) / AUC(0-∞) / half-life / MRT last: single 6.4 mg/kg, mean ± SD; for AUC(0-t) / AUC(0-∞) / half-life: n = 6; for MRT last: n = 6, read-out: MRT (0-t) (converted)
Method: Six rats were given compound 8b (6.4 mg/kg) ([Zhang J. et al., 2021]) by intravenous injection (i.v.) and intragastric administration (i.g.), respectively. The animal experiment protocol was performed according to the guidelines for animal experiments and supervised by the Experimental Animal Ethics Committee of Anhui University of Chinese Medicine (AHUCM-rats-2019001). Then, approximately 1.0 mL of blood was taken from the orbital venous plexus of the rats and placed into an EP-containing heparin at predetermined time points of 3, 5, 10, 20, 30, 45, 60, 120, and 240 min after dosing. The blood sample was centrifuged for 15 min at 3,500 rpm to obtain plasma. For plasma preparation, 180 μL of plasma was mixed with 20 μL of glibenclamide as an internal standard and 900 μL of acetonitrile. The mixture was then centrifuged at 12,000 rpm for 10 min. After centrifugation, 800 μL of the supernatant was dried using a vacuum freeze dryer. The dried sample was then reconstituted with 200 μL of acetonitrile for LC/MS analysis. The analytical conditions for the plasma samples are as follows: a Hypersil GOLD C8 HPLC Column (2.1 mm × 100 mm, 1.9μm; Thermo Fisher Scientific, United States) was used for chromatographic separation. The column temperature was maintained at 30°C, and the sample chamber temperature was maintained at 4°C. A gradient elution with a flow rate of 0.2 mL/min (phase A: 0.1% formic acid, phase B: methanol) was carried out from 45% B to 80% within 2.5 min, then from […] to 90% within 1 min, and maintained at 90% for 1 min; subsequently, it was decreased from 90% to 45% in 30 s and maintained for 1 min. Multiple-reaction monitoring (MRM) was quoted as the acquisition mode of mass spectrometry in a positive ionization mode. The mass spectrometry detector was equipped with an electrospray ionization (ESI) source. The optimal MS parameters were as follows: the ion source temperature was set at 400°C, the vaporization temperature was set at 500°C, the electrospray voltage was set to 5500 V, and the capillary voltage was set to 3600 V. The ion pair of 8b is m/z 517.0 and 281.4, and the declustering voltage is 120 eV; the collision energy is 40 eV. Similarly, the ion pair of glibenclamide is m/z 494.1 and 169.0, the declustering voltage is 65 eV, and the collision energy is 50 eV.

[5] = system: OGD/R PC12 cells; experiment: Protective effect on OGD/R PC12 cells (oxygen-glucose deprivation), CCK-8; type: cell-based; settings: Rattus norvegicus, mean ± SD, n = 5, read-out: Cell viability (%)
Method: as §1
For oxygen-glucose deprivation of PC12 cell activity, the procedure was conducted as follows ([Wei et al., 2022]): the cells were cultured in a 96-well plate for 24 h. Then, the culture medium was replaced with oxygen–glucose-free RPMI 1640 and placed in an incubator with 5% CO2 and 95% N2 for 2 h. Once the oxygen-free process was completed, the culture medium was changed back to RPMI 1640 and maintained at 37°C with 5% CO2 for an additional 24 h. Cell viability was then assessed using the CCK-8 assay.

[6] = set-up: method as in Zhang J. et al., 2021; settings: found in the authors' previous study; ref Zhang J. et al., 2021; cited from earlier work

IC50 [1]: 52.5 ± 3.29 µM | IC50 [2]: > 1000 µM
Compound: O=C(O)/C=C/c1ccc(Cn2ccnc2)cc1 [Ozagrel, (E)-sodium 4-(1-imidazolomethyl) cinnamate]

IC50 [1]: 462 ± 28.7 µM | IC50 [2]: > 1000 µM
Compound: COc1ccc(C(C)=O)c(OCCCN2CCN(C(=O)C=Cc3ccc(Cn4ccnc4)cc3)CC2)c1 [PNC2]

IC50 [1]: 74.7 ± 4.86 µM | time remained detectable in the blood ([4]; i.g.): up to 8 h | MRT i.g. relative to i.v. ([4]; i.g. longer than i.v.): 2.11 times | t1/2 i.g. relative to i.v. ([4]; i.g. longer than i.v.): 2.33 times | AUC(0-t) ([4]; i.g.): 6148.338 ± 2222.737 µg·min/L | AUC(0-∞) ([4]; i.g.): 8346.219 ± 3,719.156 μg/L*min | time within which peak concentration was visible ([4]; i.v.): ≤ 6 h | AUC(0-t) ([4]; i.v.): 18,552.773 ± 7438.264 μg/L*min | AUC(0-∞) ([4]; i.v.): 19,250.669 ± 7673.11 μg/L*min | half-life ([4]; rat, plasma, iv): 2.08 ± 0.295 h | MRT last ([4]; rat, plasma, iv): 2.5 h | Tmax ([4]; rat, plasma, po, 6.4 mg/kg, i.g., read-out: time of peak concentration in the blood): 1 h | half-life ([4]; rat, plasma, po, i.g.): 4.85 ± 1.74 h | MRT last ([4]; rat, plasma, po, i.g.): 5.28 h | AUC by i.g. relative to i.v. ([4]; ratio of AUC(0-t) i.g. vs i.v., 6.4 mg/kg): 33.3% and 33.1% | IC50 [2]: 485 ± 31.1 µM
Compound: COc1ccc(C(C)=O)c(OCCCCN2CCN(C(=O)C=Cc3ccc(Cn4ccnc4)cc3)CC2)c1 [PNC3]
impact on cell viability ([3]; 0–0.16 μM): no impact on cell viability | cell survival rate ([3]; 0.08 μM): 97.52% | cell survival rate ([3]; concentration exceeded 0.16 μM): 94.03% | viability at 0.02 µM ([5]; PC-12, 0.02 μM): 50.5 ± 2.95% | viability at 0.04 µM ([5]; PC-12, 0.04 μM): 54.2 ± 2.68% | viability at 0.08 µM ([5]; PC-12, 0.08 μM): 62.3 ± 3.14%

IC50 [1]: 692 ± 45.7 µM | IC50 [2]: > 1000 µM
Compound: COc1ccc(C(C)=O)c(OCCCCCN2CCN(C(=O)C=Cc3ccc(Cn4ccnc4)cc3)CC2)c1 [PNC4]

IC50 [1]: 234 ± 16.6 µM | IC50 [2]: > 1000 µM
Compound: COc1ccc(C(C)=O)c(OCCCNC(=O)C=Cc2ccc(Cn3ccnc3)cc2)c1 [PNC5, 3-(4-((1H-imidazol-1-yl)methyl)phenyl)-N-(3-(2-acetyl-5-metho-xyphenoxy)propyl)acrylamide]

IC50 [1]: 349 ± 16 µM | IC50 [2]: 842 ± 53.3 µM
Compound: COc1ccc(C(C)=O)c(OC(=O)C=Cc2ccc(Cn3ccnc3)cc2)c1 [POC, reference compound]
stability [6]: unstable
